Assay results taken from publication PMC3005796 (Biochemistry, 2010).

Assays:
P450 2B4 [1] = biological target: T1, P450 2B4 (Oryctolagus cuniculus, UniProt P00178, H226Y); conditions: ratio 2B4/2B6
2B6 = conditions: ref [20]; cited from earlier work
[2] = biological target: T2, Cytochrome P450 2B4dH(H226Y) (Oryctolagus cuniculus, UniProt P00178, H226Y); assay: biochemical
[3] = biological target: T3, Human cytochrome P450 2B6dH (Homo sapiens, UniProt P20813); conditions: 1 μM P450, 25 °C, 50 mM potassium phosphate pH 7.4, 500 mM NaCl, 500 mM sucrose
P450 2B4 [4] = biological target: T1, P450 2B4; assay: biochemical
P450 2B6 = P450 2B6 (Homo sapiens, UniProt P20813, D28G/E2A/H23K/H27K/N25S/P24T/R22K/R29K/T26S); assay: biochemical
[5] = biological target: T3, Human cytochrome P450 2B6dH; assay: biochemical
[6] = biological target: T2, Cytochrome P450 2B4dH(H226Y); conditions: for ΔAmax: 2B4dH, 1 μM P450, 25 °C, 50 mM potassium phosphate pH 7.4, 500 mM NaCl, 500 mM sucrose

SMILES | fold higher Ki of 2B4 than 2B6 (P450 2B4 [1]) | suppression of bupropion hydroxylation by 2B6 (2B6) | Kd [2] | ΔAmax [3] | Ki (P450 2B4 [4]) | Ki (P450 2B6) | Kd [5] | ΔAmax [6] | fold higher Ks of 2B4 compared with 2B6 ([6]; ratio 2B4/2B6)
COC(=O)[C@H](c1ccccc1Cl)N1CCc2sccc2C1 [Clopidogrel, clopidogrel] | 4 fold | 68% | 600 ± 60 nM | 0.04 ± 0.005 OU μM^-1 | 360 ± 40 nM | 100 ± 10 nM | 100 ± 70 nM | 0.05 ± 0.001 OU μM^-1 | ~6 fold
Clc1ccccc1CN1CCc2sccc2C1 [Ticlopidine, ticlopidine] |  | 90% | 1300 ± 100 nM | 0.02 ± 0.001 OU μM^-1 | 810 ± 100 nM |  |  | 0.03 ± 0.008 OU μM^-1 | 
